{
  "source": "patent US20240067932A1",
  "about": "“METHODS AND COMPOSITIONS FOR GENERATING HEMOGENIC ENDOTHELIAL CELLS FROM PLURIPOTENT STEM CELLS” (Trailhead Biosystems Inc., priority 2022, published 2024)",
  "key": {"[1]": {"test_system": "early mesoderm progenitors", "experiment": "Factor criticality / dynamic profile analysis of gene expression on removal of a finalized effector", "type": "cell-based, human", "design": "expression level of GATA2 / expression level of TAL1 / expression level of CD44 / expression level of KDR / expression level of CD34 / expression level of CD31: unit not given here"}, "[2]": {"test_system": "early mesoderm progenitors", "experiment": "8-factor HD-DoE experiments optimized for maximum GATA2 expression (qPCR, partial least squares models)", "type": "cell-based, human"}, "[3]": {"details": "model FIG. 9A, before addition of SANT1"}, "[4]": {"details": "model FIG. 9A, with addition of SANT1"}, "[5]": {"details": "fourth model, FIG. 5, factors VEGF, FGF2, Sphingosine 1 phosphate, V11298, Pyrintegrin, Erythropoietin, L-ascorbic acid, XAV939"}, "[6]": {"details": "second model, FIG. 3, factors CHIR, VEGF, FGF2, TTNBP, AGN194310, Y27632, Thymosin-β4, heparin"}, "[7]": {"details": "model FIG. 10, named factor removed"}},
  "data": [
    {"compound": "Cc1nn(-c2ccccc2)c(C)c1/C=N/N1CCN(Cc2ccccc2)CC1", "note": "[SANT1, reference compound]", "values": [
      {"measurement": "effect on expression of genes of interest (in words)", "setting": "[1]; model FIG. 9", "value": "decreased levels of all genes of interest"},
      {"measurement": "expression level of CD34", "setting": "[1]; [3]", "value": 3159},
      {"measurement": "expression level of KDR", "setting": "[1]; [3]", "value": 13469},
      {"measurement": "expression level of TAL1", "setting": "[1]; [3]", "value": 1010},
      {"measurement": "expression level of CD34", "setting": "[1]; [4]", "value": 1995},
      {"measurement": "expression level of KDR", "setting": "[1]; [4]", "value": 12504},
      {"measurement": "expression level of TAL1", "setting": "[1]; [4]", "value": 498}
    ]},
    {"compound": "O=C1O[C@H]([C@@H](O)CO)C(O)=C1O", "note": "[L-ascorbic acid, reference compound]", "values": [
      {"measurement": "effect on expression of hemogenic endothelial genes analyzed (in words)", "setting": "[1]; model FIG. 10", "value": "increased expression of crucial genes"},
      {"measurement": "factor contribution (maximum expression of GATA2)", "setting": "[2]; [5]", "value": 5}
    ]},
    {"compound": "heparin", "values": [
      {"measurement": "factor contribution (maximum expression of GATA2)", "setting": "[2]; [6]", "value": "relatively low factor contribution"}
    ]},
    {"compound": "Cc1c[nH]c(-c2cnc(NCCNc3ccc(C#N)cn3)nc2-c2ccc(Cl)cc2Cl)n1", "note": "[CHIR]", "values": [
      {"measurement": "factor contribution (maximum expression of GATA2)", "setting": "[2]; [6]", "value": "relatively low factor contribution"}
    ]},
    {"compound": "C[C@@H](N)[C@H]1CC[C@H](C(=O)Nc2ccncc2)CC1", "note": "[Y27632]", "values": [
      {"measurement": "factor contribution (maximum expression of GATA2)", "setting": "[2]; [6]", "value": "relatively low factor contribution"}
    ]},
    {"compound": "Oc1nc(-c2ccc(C(F)(F)F)cc2)nc2c1CSCC2", "note": "[XAV939, reference compound]", "values": [
      {"measurement": "expression level of GATA2", "setting": "[1]; model FIG. 10 (XAV939, VEGF, FGF2, L-ascorbic acid kept), factor present", "value": 992},
      {"measurement": "expression level of CD31", "setting": "[1]; model FIG. 10, factor present", "value": 6619},
      {"measurement": "expression level of CD34", "setting": "[1]; model FIG. 10, factor present", "value": 7050},
      {"measurement": "expression level of CD44", "setting": "[1]; model FIG. 10, factor present", "value": 838},
      {"measurement": "expression level of FLI1 (Fill [sic])", "setting": "[1]; model FIG. 10, factor present", "value": 13094},
      {"measurement": "expression level of KDR", "setting": "[1]; model FIG. 10, factor present", "value": 36067},
      {"measurement": "expression level of TAL1", "setting": "[1]; model FIG. 10, factor present", "value": 1265},
      {"measurement": "expression level of CD31", "setting": "[1]; [7]", "value": 2181},
      {"measurement": "expression level of CD34", "setting": "[1]; [7]", "value": 5740},
      {"measurement": "expression level of CD44", "setting": "[1]; [7]", "value": 799},
      {"measurement": "expression level of FLI1 (Fill [sic])", "setting": "[1]; [7]", "value": 7237},
      {"measurement": "expression level of GATA2", "setting": "[1]; [7]", "value": 560},
      {"measurement": "expression level of KDR", "setting": "[1]; [7]", "value": 31179},
      {"measurement": "expression level of TAL1", "setting": "[1]; [7]", "value": 982},
      {"measurement": "factor contribution (maximum expression of GATA2)", "setting": "[2]; [5]", "value": 16}
    ]},
    {"compound": "CCc1ccc(C2=CC(C)(C)Sc3ccc(C#Cc4ccc(C(=O)O)cc4)cc32)cc1", "note": "[AGN194310]", "values": [
      {"measurement": "factor contribution (maximum expression of GATA2)", "setting": "[2]; [6]", "value": "relatively low factor contribution"}
    ]}
  ]
}
